{"source": "patent US12109218B2", "about": "“Compositions of grapiprant and methods for using the same” (ARATANA THERAPEUTICS, INC., priority 2014, dated 2024)", "test_system": "meniscal release model of osteoarthritis", "assay": "Meniscal release model of osteoarthritis in dogs (Example 8)", "assay_type": "in vivo", "conditions": "5 mg/kg daily", "description": "Twenty intact adult female hounds underwent surgical meniscal release of the right stifle and were maintained for at least 8 weeks to allow osteoarthritis to develop. […] Animals were randomized into three groups: negative control (n=6), positive control (n=7) treated with 5 mg/kg firocoxib daily, and grapiprant (n=7) dosed once daily at 30 mg/kg. Dosing was based on baseline bodyweight.\nBaseline physical exams, bodyweights, hematology, serum chemistry and urinalysis were obtained on study Day −1 and repeated on Day 13. Orthopedic assessments were conducted on Day −1, Day 2, Day 6, and Day 13, including a kinetics assessment using the GAITRite system to determine left hindlimb: right hindlimb ratios for peak pressure, stride length, step length, and stance time, a 5-point scale lameness evaluation, VAS assessments of right hindlimb function, right stifle pain and effusion, and comfortable range of motion measurements of both stifles using a goniometer."}
{"smiles": "CC1(C)OC(=O)C(OCC2CC2)=C1c1ccc(S(C)(=O)=O)cc1", "note": "[firocoxib, reference compound]", "values": [{"measurement": "peak pressure ratios, lameness and function scores compared to baseline", "result": "improved statistically significant mean peak pressure ratios on Day 13 and in mean lameness and mean function scores on Day 6 and 13 compared to baseline"}]}
